Data reported in patent US7449463B2, “Morpholinyl containing benzimidazoles as inhibitors of respiratory syncytial virus replication” (Tibotec Pharmaceuticals Ltd., priority 2003, dated 2008).

Tests used:
[1] = test system: Respiratory Syncytial Virus; assay: microbe, parasite or virus in culture; format: cell-based; details: for EC50: human respiratory syncytial virus
Text: In vitro Screening for Activity against Respiratory Syncytial Virus.
The percent protection against cytopathology caused by viruses (antiviral activity or EC50) achieved by tested compounds and their cytotoxicity (CC50) are both calculated from dose-response curves. The selectivity of the antiviral effect is represented by the selectivity index (SI), calculated by dividing the CC50 (cytotoxic dose for 50% of the cells) by the EC50 (antiviral activity for 50% of the cells).
Automated tetrazolium-based colorimetric assays were used for determination of EC50 and CC50 of test compounds. Flat-bottom, 96-well plastic microtiter trays were filled with 180 μl of Eagle's Basal Medium, supplemented with 5% FCS (0% for FLU) and 20 mM Hepes buffer. Subsequently, stock solutions (7.8× final test concentration) of compounds were added in 45 μl volumes to a series of triplicate wells so as to allow simultaneous evaluation of their effects on virus- and mock-infected cells. Five five-fold dilutions were made directly in the microtiter trays using a robot system. Untreated virus controls, and HeLa cell controls were included in each test. Approximately 100 TCID50 of Respiratory Syncytial Virus was added to two of the three rows in a volume of 50 μl. The same volume of medium was added to the third row to measure the cytotoxicity of the compounds at the same concentrations as those used to measure the antiviral activity. After two hours of incubation, a suspension (4×10^5 cells/ml) of HeLa cells was added to all wells in a volume of 50 μl. The cultures were incubated at 37° C. in a 5% CO2 atmosphere. Seven days after infection the cytotoxicity and the antiviral activity was examined spectrophotometrically. To each well of the microtiter tray, 25 μl of a solution of MTT (3-(4,5-dimethylthiazol-2-yl)-2,5-diphenyltetrazolium bromide) was added. The trays were further incubated at 37° C. for 2 hours, after which the medium was removed from each cup. Solubilization of the formazan crystals was achieved by adding 100 μl 2-propanol. Complete dissolution of the formazan crystals were obtained after the trays have been placed on a plate shaker for 10 min. Finally, the absorbances were read in an eight-channel computer-controlled photometer (Multiskan MCC, Flow Laboratories) at two wavelengths (540 and 690 nm). The absorbance measured at 690 nm was automatically subtracted from the absorbance at 540 nm, so as to eliminate the effects of non-specific absorption.

[2] = 168 h, RSV-infected HeLa cells, MTT readout seven days after infection, −log of EC50 in molar units
[3] = pEC50 (−log of EC50 when expressed in molar units), protection against RSV cytopathology
[4] = RSV-infected HeLa cells, MTT readout seven days after infection, −log of EC50 in molar units

| Compound | melting point | Activity [1, 3] | also measured |
| --- | --- | --- | --- |
| Cc1cc(C)c2nc(NCCCN3CCOCC3)n(Cc3nc(C)ccc3O)c2c1 [Compound 154, 2-[4,6-dimethyl-2-(3-morpholin-4-yl-propylamino)-benzoimidazol-1-yl-methyl]-6-methyl-pyridin-3-ol] | 228 °C | – | EC50 [1, 2]: 126 nM |
| Cc1ccc(S(=O)(=O)CCO)c(NCc2ccc3nc(NCCCN4CCOCC4)n(Cc4nc(C)ccc4O)c3c2)c1 [Compound 12] | 170 °C | – | EC50 [1, 2]: 0.251 nM |
| Cc1ccc(CCCO)c(NCc2ccc3nc(NCCCN4CCOCC4)n(Cc4cccc5c4ncn5C)c3c2)c1 [Compound 218, 3-(4-Methyl-2-{[3-(1-methyl-1H-benzoimidazol-4-ylmethyl)-2-(3-morpholin-4-yl-propylamino)-3H-benzoimidazol-5-ylmethyl]-amino}-phenyl)-propan-1-ol] | 198 °C | – | EC50 [1, 3]: 2.51 nM |
| Cc1cc(C)cc(N(CCCC(N)=O)Cc2ccc3nc(NCCCN4CCOCC4)n(Cc4cccc5cccnc45)c3c2)c1 [Compound 223, 4-{(3,5-Dimethyl-phenyl)-[2-(3-morpholin-4-yl-propylamino)-3-quinolin-8-ylmethyl-3H-benzoimidazol-5-ylmethyl]-amino}-butyramide] | 154 °C | – | EC50 [1, 3]: 3.16 nM |
| Cc1ccc(CCCO)c(NCc2ccc3nc(NCCCN4CCOCC4)n(Cc4cccc5cccnc45)c3c2)c1 [Compound 234, 3-(4-Methyl-2-{[2-(3-morpholin-4-yl-propylamino)-3-quinolin-8-ylmethyl-3H-benzoimidazol-5-ylmethyl]-amino}-phenyl)-propan-1-ol] | 165 °C | – | EC50 [1, 3]: 5.01 nM |
| Cc1ccc(I)c(NCc2ccc3nc(NCCCN4CCOCC4)n(Cc4nc(C)ccc4O)c3c2)c1 [Compound 50] | 225 °C | – | EC50 [1, 2]: 50.1 nM |
| Cc1ccc(O)c(Cn2c(NCCCN3CCOCC3)nc3ccc(CNc4c(C)cc(CCC#N)cc4C)cc32)n1 [Compound 49, 3-(4-{[3-(3-hydroxy-6-methyl-pyridin-2-ylmethyl)-2-(3-morpholin-4-yl-propylamino)-3H-benzoimidazol-5-ylmethyl]-amino}-3,5-dimethyl-phenyl)-propionitrile] | 114 °C | – | EC50 [1, 2]: 39.8 nM |
| Cc1cc(C)cc(N(CCCC(N)=O)Cc2ccc3nc(NCCCN4CCOCC4)n(Cc4cccc(Br)n4)c3c2)c1 [Compound 261, 4-[[3-(6-Bromo-pyridin-2-ylmethyl)-2-(3-morpholin-4-yl-propyl-amino)-3H-benzoimidazol-5-ylmethyl]-(3,5-dimethyl-phenyl)-amino]-butyramide] | 82 °C | – | EC50 [1, 3]: 31.6 nM |
| CCOC(=O)CCCN(Cc1ccc2nc(NCCCN3CCOCC3)n(Cc3nc(C)ccc3O)c2c1)c1cc(C)cc(C)c1 [Compound 71, 4-{(3,5-dimethyl-phenyl)-[3-(3-hydroxy-6-methyl-pyridin-2-ylmethyl)-2-(3-morpholin-4-yl-propylamino)-3H-benzoimidazol-5-ylmethyl]-amino}-butyric acid ethyl ester] | 130 °C | – | EC50 [1, 2]: 2.51 nM |
| Cc1cc(C)c2c(c1)nc(NCCCN1CCOCC1)n2Cc1nc(C)ccc1O [Compound 156, 2-[5,7-dimethyl-2-(3-morpholin-4-yl-propylamino)-benzoimidazol-1-ylmethyl]-6-methyl-pyridin-3-ol] | 234 °C | – | EC50 [1, 2]: 12600 nM |
| Cc1ccc2c(c1)N(Cc1ccc3nc(NCCCN4CCOCC4)n(Cc4nc(C)ccc4O)c3c1)CC2 [Compound 153] | 212 °C | – | EC50 [1, 2]: 50.1 nM |
| Cc1ccc(CCCO)c(NCc2ccc3nc(NCCCN4CCOCC4)n(Cc4cc(Br)ccc4O)c3c2)c1 [Compound 201, 4-Bromo-2-[6-{[2-(3-hydroxy-propyl)-5-methyl-phenylamino]-methyl}-2-(3-morpholin-4-yl-propylamino)-benzoimidazol-1-ylmethyl]-phenol] | 134 °C | – | EC50 [1, 3]: 0.501 nM |
| Cc1ccc(CCCO)c(NCc2ccc3nc(NCCCN4CCOCC4)n(Cc4nc(C)c(C)nc4C)c3c2)c1 [Compound 255, 3-(4-Methyl-2-{[2-(3-morpholin-4-yl-propylamino)-3-(3,5,6-trimethyl-pyrazin-2-ylmethyl)-3H-benzoimidazol-5-ylmethyl]-amino}-phenyl)-propan-1-ol] | 120 °C | – | EC50 [1, 3]: 25.1 nM |
| Cc1cc(C)cc(NCc2ccc3nc(NCCCN4CCOCC4)n(Cc4nc(C)ccc4O)c3c2)c1 [Compound 23, 2-[6-[(3,5-dimethyl-phenylamino)-methyl]-2-(3-morpholin-4-yl-propylamino)-benzoimidazol-1-ylmethyl]-6-methyl-pyridin-3-ol] | 199 °C | – | EC50 [1, 2]: 1 nM |
| Cc1ccc(O)c(Cn2c(NCCCN3CCOCC3)nc3ccc(CNc4ccccc4CN)cc32)n1 [Compound 108] | – | – | Activity [1, 4]: 8 |
| Cc1ccc(CCO)c(NCc2ccc3nc(NCCCN4CCOCC4)n(Cc4cccc(C)n4)c3c2)c1 [Compound 275] | – | 7.2 | – |
| Cc1cc(C)cc(N(CCCC(N)=O)Cc2ccc3nc(NCC(O)CN4CCOCC4)n(Cc4nc(C)ccc4O)c3c2)c1.Cl (stereo not drawn) [Compound 178, 4-{(3,5-Dimethyl-phenyl)-[3-(3-hydroxy-6-methyl-pyridin-2-ylmethyl)-2-(2-hydroxy-3-morpholin-4-yl-propylamino)-3H-benzoimidazol-5-ylmethyl]-amino}-butyramide, HCl salt] | – | – | Activity [1, 4]: 9.6 |
| Cc1cccc(NCc2ccc3nc(NCCCN4CCOCC4)n(Cc4cccc5c4ncn5C)c3c2)c1 [Compound 295] | – | 6.9 | – |
| Cn1cnc2c(Cn3c(NCCCN4CCOCC4)nc4ccc(CNc5ccc(C(N)=O)cc5)cc43)cccc21 [Compound 296] | – | 6.9 | – |

| Compound | melting point | Activity [1, 3] | also measured |
| --- | --- | --- | --- |
| 4-{(3,5-Dimethyl-phenyl)-[3-(3-hydroxy-pyridin-2-ylmethyl)-2-(3-morpholin-4-yl-propylamino)-3H-benzoimidazol-5-ylmethyl]-amino}-butyramide [Compound 228] | – | 8.4 | – |
| Cc1cccc(NCc2ccc3c(c2)nc(NCCCN2CCOCC2)n3C2CCCc3nc(C)c(C)nc32)c1CCO (stereo not drawn) [Compound 292] | – | 7 | – |
| Cc1nc(C)c(Cn2c(NCCCN3CCOCC3)nc3ccc(CNc4ccccc4CCCO)cc32)nc1C [Compound 243] | – | 7.8 | – |
| C#Cc1cccc(N(CCO)Cc2ccc3nc(NCCCN4CCOCC4)n(Cc4nc(C)ccc4O)c3c2)c1 [Compound 99] | – | – | Activity [1, 4]: 8.5 |
| Cc1ccc(CCCO)c(NCc2ccc3c(c2)nc(NCCCN2CCOCC2)n3Cc2ncccc2O)c1 [Compound 301] | – | 6.8 | – |
| Cn1cnc2c(Cn3c(NCCCN4CCOCC4)nc4ccc(CNc5ccccc5CCC(N)=O)cc43)cccc21 [Compound 238] | – | 7.9 | – |
| Cc1cc(C)cc(NCc2ccc3c(c2)nc(NCCCN2CCOCC2)n3Cc2nc(C)ccc2O)c1 [Compound 51] | – | – | Activity [1, 4]: 7.2 |
| Cc1ccc(O)c(Cn2c(NCCCN3CCOCC3)nc3ccc(CNc4cc(Br)ccc4CCCO)cc32)n1 [Compound 2] | – | – | Activity [1, 4]: 10 |
| Cn1cnc2c(Cn3c(NCCCN4CCOCC4)nc4ccc(CNc5ccccc5CCCO)cc43)cccc21 [Compound 224] | – | 8.5 | – |
| Cc1ccc(O)c(Cn2c(NCCCN3CCOCC3)nc3ccc(CO)cc32)n1 [Compound 52] | – | – | Activity [1, 4]: 7.2 |
| COc1ccc(C)nc1Cn1c(NCCCN2CCOCC2)nc2ccc(CO)cc21 [Compound 346] | – | 4.9 | – |
| Cc1ccc(O)c(Cn2c(NCCCN3CCOCC3)nc3ccc(CNc4cc(F)ccc4CCO)cc32)n1 [Compound 18] | – | – | Activity [1, 4]: 9.6 |
| Cc1ccc(O)c(Cn2c(NCCCN3CC(C)OC(C)C3)nc3ccc(CO)cc32)n1 (stereo not drawn) [Compound 177] | – | – | Activity [1, 4]: 5.7 |
| Cc1cccc(NCc2ccc3nc(NCCCN4CCOCC4)n(Cc4nc(C)c(C)nc4C)c3c2)c1CCO [Compound 282] | – | 7.1 | – |
| Cc1cccc(NCc2ccc3c(c2)nc(NCCCN2CCOCC2)n3C2CCCc3nc(C)c(C)nc32)c1CO (stereo not drawn) [Compound 293] | – | 7 | – |
| Cc1ccc(CCO)c(NCc2ccc3nc(NCCCN4CCOCC4)n(Cc4cccc5c4ncn5C)c3c2)c1 [Compound 229] | – | 8.4 | – |
| Cc1ccc(CCC(N)=O)c(NCc2ccc3nc(NCCCN4CCOCC4)n(Cc4nc(C)ccc4O)c3c2)c1 [Compound 16] | – | – | Activity [1, 4]: 9.3 |
| Cc1ccc(O)c(Cn2c(NCCCN3CCOCC3)nc3ccc(CNc4ccccc4CCN4CCOCC4)cc32)n1 [Compound 42] | – | – | Activity [1, 4]: 8.3 |
